Source: patent publication US20230357447A1, “TUMOR ACTIVATED MULTISPECIFIC ANTIBODIES FOR TARGETING CD28 AND PD-L1 AND METHODS OF USE THEREOF” (Janux Therapeutics, Inc., priority 2022, published 2023)

How the values were obtained:
[1] = system: anti-CD28 scFv (SEQ ID NO: 9); test: Octet bio-layer interferometry kinetic binding of anti-CD28 scFv to peptides; design: species or system human; conditions: Octet RED96; biotinylated peptide loaded on streptavidin biosensor; anti-CD28 scFv in solution; 1:1 binding model
Description: (§1) Association and dissociation signals were recorded in real time and analyzed using a 1:1 binding model within the instrument software. Analysis using a 1:1 binding model enabled the calculation of the on and off rate constants as well as affinity, KD.
as §1

anti-CD28 scFv = test: Phage binding ELISA (panning) of clonal phage on anti-CD28 scFv, with or without CD28 soluble protein; conditions: for Phage binding ELISA Backgroud signal / Backgroud signal: clonal phage supernatant; for Backgroud signal: background wells
Summary of the method: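 Wells pre-incubated with blocking buffer plus CD28 soluble protein or blocking buffer alone, then crude clonal phage supernatants added without washing for a short incubation. After washing, bound phage detected with HRP-conjugated anti-M13 antibody.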

[2] = background (no anti-CD28 scFv signal)

Row | Compound | Phage binding ELISA Backgroud signal (anti-CD28 scFv; background signal) | other results
1 | CSCC[C@H](N)C(=O)N[C@@H](Cc1c[nH]cn1)C(=O)N[C@@H](Cc1c[nH]c2ccccc12)C(=O)N[C@H]1CSSC[C@@H](C(=O)N[C@@H](Cc2ccc(O)cc2)C(=O)N[C@@H](CC(N)=O)C(=O)O)NC(=O)[C@H](CC(C)C)NC(=O)[C@H](Cc2ccc(O)cc2)NC(=O)[C@H](Cc2c[nH]c3ccccc23)NC(=O)[C@H](CC(C)C)NC(=O)[C@H](CC(=O)O)NC(=O)[C@H](C(C)C)NC(=O)[C@@H]2CCCN2C1=O [Peptide-49] |  | kdis [1]: 0.00186 s⁻¹
2 | CSCC[C@@H]1NC(=O)[C@H](Cc2c[nH]cn2)NC(=O)[C@H](CCCNC(=N)N)NC(=O)[C@@H]2CCCN2C(=O)[C@@H](NC(=O)[C@H](Cc2c[nH]c3ccccc23)NC(=O)[C@H](CC(=O)O)NC(=O)[C@@H](N)CCSC)CSSC[C@@H](C(=O)N[C@@H](Cc2ccccc2)C(=O)N[C@@H](C)C(=O)O)NC(=O)[C@H](Cc2ccc(O)cc2)NC(=O)[C@H](CC(N)=O)NC(=O)[C@H](Cc2c[nH]c3ccccc23)NC1=O [Peptide-46] |  | kdis [1]: 0.00218 s⁻¹
3 | Phage-284 (MDWCPRFLWHVCFS) | 2.091 | 
4 | Phage-175 (MDWCPAYLWAECFS) | 0.082 | 
5 | Phage-140 (MDWCPMDLWDVCFN) |  | Backgroud signal (anti-CD28 scFv; Phage binding ELISA): 0.090
6 | Phage-124 (MDWCPRPLWDMCFF) |  | Backgroud signal (anti-CD28 scFv; Phage binding ELISA): 0.063
7 | Phage-346 (MDWCPRHLWHACFS) | 0.073 | 
8 | Phage-154 (MDWCPRDLWNVCFA) |  | Backgroud signal (anti-CD28 scFv; Phage binding ELISA): 0.114
9 | Phage-323 (MDWCPTYLWNVCFA) | 0.085 | 
10 | Phage-210 (MDWCPRDMWFECFA) | 0.076 | 
11 | Phage-214 (MDWCPTYMWSECFN) | 0.086 | 
12 | Phage-360 (MDWCPMFLWHECFS) | 0.092 | 
13 | Phage-368 (MSWCPPYLWTVCYN) | 0.176 | 
14 | Phage-202 (MFWCPMDMWDQCFN) | 0.091 | 
15 | Phage-403 (MSWCPWDMWNECFA) |  | Phage binding ELISA Backgroud signal (anti-CD28 scFv; [2]): 0.069
16 | Phage-222 (MDWCPRDQWHNCFN) | 0.075 | 
17 | Phage-61 (MVSCPTTMWNRCFN) | 0.079 | 
18 | Phage-326 (MFWCPITLWNECFN) | 0.075 | 
19 | Phage-433 (MAWCPWAQFDECLA) |  | Phage binding ELISA Backgroud signal (anti-CD28 scFv; [2]): 0.073
20 | Phage-208 (MDWCPTDMWIVCFA) | 0.363 | 
21 | Phage-155 (MHWCPLHLWNECYH) |  | Backgroud signal (anti-CD28 scFv; Phage binding ELISA): 0.063
22 | Phage-163 (MFWCPRYLWHECFN) | 0.086 | 
23 | Phage-137 (MDWCPRYLWHECFH) |  | Backgroud signal (anti-CD28 scFv; Phage binding ELISA): 0.101
24 | Phage-199 (MDWCPRNMWAQCFA) | 0.102 | 
25 | Phage-292 (MDWCPRALWDHCFF) | 0.081 | 

Row | Compound | Phage binding ELISA Backgroud signal (anti-CD28 scFv; background signal) | other results
26 | Phage-446 (MDWCPRDRWDDCFN) |  | Phage binding ELISA Backgroud signal (anti-CD28 scFv; [2]): 0.069
27 | Phage-333 (MDWCPTDLWHECFA) | 0.078 | 
28 | Phage-434 (IVWCPTTQWNRCAT) |  | Phage binding ELISA Backgroud signal (anti-CD28 scFv; [2]): 0.113
29 | Phage-382 (ITWCPTSLWNRCLV) |  | Phage binding ELISA Backgroud signal (anti-CD28 scFv; [2]): 0.077
30 | Phage-90 (MDWCPIDLWHLCFY) |  | Backgroud signal (anti-CD28 scFv; Phage binding ELISA): 0.062
31 | Phage-50 (MDWCPPYLWNVCFS) | 0.063 | 
32 | Phage-40 (MDWCPIDMWDQCFN) | 0.061 | 
33 | Phage-451 (MDWCPRFWWHECYA) |  | Phage binding ELISA Backgroud signal (anti-CD28 scFv; [2]): 0.246
34 | Phage-67 (MNWCPTALWHVCFN) | 0.067 | Phage binding ELISA CD28 scFv signal in presence of CD28 (anti-CD28 scFv; clonal phage supernatant on captured anti-CD28 scFv pre-incubated with CD28 soluble protein): 0.169; Phage binding ELISA CD28 scFv signal (anti-CD28 scFv; clonal phage supernatant on captured biotinylated anti-CD28 scFv, blocking buffer alone): 1.644
35 | Phage-92 (MDWCPRHLWHECFF) |  | CD28 scFv signal in presence of CD28 (anti-CD28 scFv; Phage binding ELISA, captured anti-CD28 scFv pre-incubated with CD28 soluble protein): 0.373; CD28 scFv signal (anti-CD28 scFv; Phage binding ELISA, captured biotinylated anti-CD28 scFv, blocking buffer alone): 2.583; Backgroud signal (anti-CD28 scFv; Phage binding ELISA): 0.364
36 | Phage-370 (MTWCPAYLWHECFN) | 0.086 | 
37 | Phage-423 (INLCPTPMWNRCWL) |  | Phage binding ELISA Backgroud signal (anti-CD28 scFv; [2]): 0.119
38 | Phage-339 (MDWCPRTLWDQCFF) | 0.088 | 
39 | Phage-248 (MDWCPRNMWHHCFD) | 0.205 | 
40 | Phage-315 (MDWCPTYLWHVCFS) | 0.089 | 
41 | Phage-317 (MDWCPRHLWHECFT) | 0.103 | 
42 | Phage-116 (MDWCPRDLWYACFA) |  | Backgroud signal (anti-CD28 scFv; Phage binding ELISA): 0.072
43 | Phage-374 (MAWCPLDLWDKCFY) | 0.079 | 
44 | Phage-201 (MDWCPRDMWDQCFD) | 0.072 | 
45 | Phage-250 (MDWCPKVMWHYCFA) | 0.136 | 
46 | Phage-340 (MSWCPIDLWSECFA) | 0.072 | 
47 | Phage-184 (MHWCPINLWNECFS) | 0.081 | 
48 | Phage-395 (MDWCPKDMWAECFN) |  | Phage binding ELISA Backgroud signal (anti-CD28 scFv; [2]): 0.083
49 | Phage-171 (MNWCPSHLWHMCYF) | 0.195 | 
